Results taken from patent US8211883B2, “Topical delivery of phthalocyanines” (priority 2004, dated 2012).

What was measured:
[1] = test system: human skin keratome biopsies; experiment: Penetration of topically applied PcIV and salts into human skin, confocal fluorescence microscopy; format: in vitro ADME; conditions: for laser transmission at which maximum fluorescence was detectable: fluorescence inversely proportional to laser transmission, listed as PcIV
Description: Human skin absorption of PcIV was analyzed by fluorescence confocal microscopy. PcIV fluorescence, upon activation with a HeNe laser at 633 nm, was visualized using a 650 long pass filter. Briefly, 0.4 mm thick human keratomes were removed from the gluteal region of healthy volunteers and divided into 1.5 cm×1.5 cm squares of skin. Upon application of PcIV to the epidermis in a vehicle of ethanol and propylene glycol, visualization of penetration of PcIV was achieved by fluorescence. Pc 4 was then prepared as PcIV-pyruvate and PcIV-HCl and applied in the same vehicle as Pc 4 to the epidermis. Three concentrations, namely, 0.1 mg/mL, 0.05 mg/mL, and 0.01 mg/mL were tested per PcIV formulation. Skin was incubated at 37° C. for 1, 2, and 4 hours, along with vehicle controls. […] Maximum PcIV fluorescence was detectable using laser transmission of 3% for the 0.1 mg/mL and 30% for the 0.01 mg/mL. Both PcIV.pyruvate and PcIV.HCl however could be visualized with a laser transmission of 2-3% for the 0.1 mg/mL and 7-9% for the 0.01 mg/mL concentrations.
The ability of PcIV and the newly prepared PcIV salts (HCl and pyruvate) to penetrate into the epidermis of keratome derived biopsies was examined. The time course of penetrance as well as the effect of dose of the PcIV compounds were evaluated. PcIV and the PcIV.HCl and PcIV.pyruvate salts were resuspended in ethanol (100%, 1 part PcIV, 499 parts ethanol) and then diluted to final concentrations in a 30% Propylene Glycol 70% Ethanol mixture.
Keratome biopsies of normal skin were obtained from normal volunteers after written consent according to UHHS IRB protocol # 05-95-03. To date, seven experiments have been performed. The range of age for volunteers was 20-40 yrs. Individuals represented Fitzpatrick skin types between I-III. Skin biopsies were held in PBS following the keratome procedure until processed for PcIV Application (less than 1 hr). The keratome skin samples (1.5 cm^2) were overlayed onto sterile gauze in 80 mm tissue culture petri dishes epidermal side down. PcIV compounds were then applied to the corners of the sterile gauze and allowed to “wick” through the gauze and contact the epidermis of the skin for the indicated times. Following the incubation, the tissue was removed from the gauze and washed three times in phosphate buffered saline and held, in PBS, until analysis by confocal microscopy. Confocal images were acquired using a 20×N.A. 0.5 water immersion objective on a Zeiss 510 confocal microscope. PcIV fluorescence was elicited using a 633 nm wavelength for excitation, and collected with a 633 nm dichroic mirror and 650 nm long-pass filter.

[2] = test system: skin lesions (early mycosis fungoides, squamous cell carcinoma); experiment: Topical PcIV-PDT of skin lesions in patients; format: in vivo, human
Description: PcIV solution concentrations were either 0.01 mg/mL or 0.05 mg/mL. One hour after administration of the PcIV solution, the skin lesions were exposed to a 675 nm laser, dose ranging from 50-100 J/cm^2. […] Two patients felt some heat over the treatment site during the first few minutes of laser exposure. […] Because Pc 4 is a photosensitizer, individual patient sun sensitivity was monitored by serial phototesting using solar simulated radiation. […] (see FIGS. 10a and 10b).

[3] = test system: Chinese hamster V79-379 lung fibroblasts; experiment: Growth delay of V79 cultures after phthalocyanine and red light; format: cell-based; conditions: V79 cells, 0.5 μM, 18 hours, 12 kJ/m^2 red light; three day observation
Description: At the time of light exposure, there were approximately 1.5×10^5 cells per 25 cm^2 flask. Following irradiation, the HBSS was replaced by 10 mL of fresh complete growth medium, and the cultures were returned to the 37° C. incubator. At various times before and after irradiation, duplicate cultures were trypsinized and counted. Controls included untreated cells and cells treated with light alone or drug alone. In addition, in each experiment, the drug to be tested was compared to a standard treatment, i.e. 1 μM AlPcCl for 18 hours followed by 12 kJ/m^2 light.
The inhibition of V79 culture growth was measured during a three day period following red light irradiation (12 kJ/m^2) of phthalocyanine-pretreated cells. With each of the active compounds, as well as with AlPcCl, there was an initial decrease in cell density, as dead cells became detached from the monolayer. Thereafter, the cell number per flask increased, as living cells grew and divided. The time for the cell density to recover to the level at the time of light exposure was considered the growth delay. […] The ratio of the growth delay for the test photosensitizer and the growth delay for AlPcCl measured in the same experiment is recorded in Table 1. There was less inhibition of culture growth when cells were exposed to compounds III, V, or VI as expected from the poor cellular uptake of these drugs.

[4] = eleven patients, topical PcIV-PDT

SMILES: CN(C)CCC[Si](C)(C)O[Si]1(O)n2c3c4ccccc4c2N=C2N=C(N=c4c5ccccc5c(n41)=NC1=NC(=N3)c3ccccc31)c1ccccc12 (centres unmarked) [Compound IV, HOSiPcOSi(CH3)2(CH2)3N(CH3)2]
- laser transmission at which maximum fluorescence was detectable ([1]; 0.01 mg/mL in ethanol and propylene glycol): 30%
- laser transmission at which maximum fluorescence was detectable ([1]; 0.1 mg/mL in ethanol and propylene glycol): 3%
- penetration into skin ([1]; 0.01-0.1 mg/mL, 1, 2 and 4 hours at 37° C.): successfully penetrated the skin to the basal layer in a dose dependent fashion
- lowest concentration tested at which penetration is demonstrated ([1]; propylene glycol vehicle): 0.01 mg/mL
- time to effective penetration through intact human stratum corneum ([1]; propylene glycol/ethanol vehicle): within one hour
- clinical response of lesions (erythema and infiltration) [2, 4]: Two patients showed a minimal decrease in erythema and infiltration of their lesions
- cures [2, 4]: No cures have been achieved to date
- TUNEL positivity in lesional skin biopsies ([2]; one patient with some clinical response, 24 hours after treatment): increase in TUNEL positivity along the superficial portion of the lesion
- changes in sunburn threshold or minimum erythema dose (MED) ([2]; serial phototesting with solar simulated radiation): No significant changes were observed
- adverse effects ([2]; topical 0.01 or 0.05 mg/mL, 675 nm laser 50-100 J/cm^2 one hour later, up to two weeks): No significant adverse effects were observed
- Growth Delay (12 kj/m^2), Efficiency Relative to 1 μM (AlPcCl) [3]: >3
